Measured values as given in US20190234926A1, “METHOD OF PREDICTING FLAVOR PERFORMANCE” (McCormick & Company, Incorporated, priority 2016, published 2019).

Test: Polarity measured as dielectric constant with a dielectric constant meter
Format: physicochemical
Conditions: at 20° C., general statement
Excerpt: Polar solvents such as water heat up in a microwave much faster than non-polar oils. Flavors heat up somewhere in between depending on their polarity. Dipolar moment of molecules of various liquids is different and can be a measure of polarity of liquids. The dipolar moment is responsible for interaction of molecules in a liquid with the electromagnetic field of a microwave oven. One measure of dipolar moment is dielectric constant. Thus, dielectric constant is a sound measure of flavor polarity and can predict flavor properties and flavor-matrix interaction whether during processing or in final target applications. An example of one commercially available dielectric constant meter useful with the method described herein is a model BI-870 from Brookhaven Instruments. It can measure dielectric constant not only at 20° C. but in a broad temperature range.
In support of development of flavors, encapsulation technologies, and applications, dielectric constant of key solvents used in flavor formulation (Table 1) were measured and a variety of target flavors (Table 2). […] Dielectric constants of binary blends of components fall in the range between the dielectric constants of individual components.

| Structure (SMILES) | Dielectric constant |
| --- | --- |
| O [Water deionized, Water] | about 80 |

Same assay, conditions: flavor components and compounded flavors incl. listed solvent, at about 20° C.

| Dielectric constant | Structure (SMILES) |
| --- | --- |
| 4.4 | CC(=O)C(C)=O [Diacetyl] |

Same assay, conditions: solvents, at about 20° C.

| Dielectric constant | Structure (SMILES) |
| --- | --- |
| 13.8 | OCc1ccccc1 [Benzyl alcohol] |
| 20.8 | CC(C)O [Isopropanol] |
| 46.1 | OCC(O)CO [Glycerin] |
| 7.0 | CC(=O)OCC(COC(C)=O)OC(C)=O [Triacetin] |
| 28.7 | CC(O)CO (stereo not drawn) [Propylene glycol] |
| 28.3 | CCO [Ethanol (95%), Ethanol] |

| Structure (SMILES) | Dielectric constant |
| --- | --- |
| O [Water deionized, Water] | 79.2 |
